{"source": "patent US6923951B2", "about": "“Non-invasive localization of a light-emitting conjugate in a mammal” (priority 1994, dated 2005)", "key": {"SL1344lux Salmonella": {"test_system": "SL1344lux Salmonella", "assay": "Effects of ciprofloxacin treatment on bioluminescence from SL1344lux Salmonella in orally inoculated mice", "type": "in vivo, Salmonella typhimurium", "procedure": "Effects of Ciprofloxacin on Salmonella Infection. […] Mice are orally inoculated with SL1344lux and treated with […] of ciprofloxacin, an antibiotic effective against Salmonella infections. The mice are imaged at selected time periods following treatment, and the extent of infection is quantitated by measuring photon emission. Photon emission in treated mice is compared to values before the initiation of treatment, and to values from control mice that had been infected, but not treated. Results from one such experiment are shown in FIGS. 11A, 11B, 11C, 11D, and 11E and discussed in Example 10.\nAnimals or objects to be imaged were immobilized in a light-tight box containing a door and a charge-coupled device (CCD) camera with a two stage microchannel intensifier head (model C2400-40, Hamamatsu). The camera was attached, via cables leading out of the box, to an “ARGUS 50” image processor (Hamamatsu).\nBioluminescence images were generated by integrating photons for a selected period of time, typically 5 minutes. […]\nFIGS. 11B and 11D show composite images of representative animals from the control and treated groups, respectively, immediately before initiation of treatment of the experimental group. […] The total number of photons detected over the abdominal area were determined, normalized to the value at t=0, and plotted in FIG. 11A with respect to time post-treatment."}, "[1]": {"test_system": "dermal cells in transgenic mice", "procedure": "In order to optimize delivery of substrate, the substrate was topically delivered to dermal cells. The HIV LTR was induced in the skin of mice with twice daily treatments of DMSO over the entire surface of the back and the right ear for two consecutive days. Substrate was applied to the skin in solutions prepared in DMSO. Concentrations included 200 mM, 100 mM, 50 mM, 25 mM, and 12.5 mM. 5 μl of each concentration were spotted, in quadruplicate, on the backs using a multichannel pipette with the highest concentrations near the head. 5 μl of the 50 mM solution was applied to each ear. 2 min. after application the animal was imaged as described in FIG. 12. […] Solutions of 25% H2O in DMSO to 100% H2O were tested.\nThe experiment of induction of luciferase expression in ears and systemic luciferin delivery of Example 14 was repeated with topical administration of substrate in 100% DMSO (FIG. 15). […] See, FIGS. 13 and 15."}, "HIV LTR": {"test_system": "HIV LTR", "assay": "DMSO induction of HIV LTR-driven luciferase expression in transgenic mice", "type": "in vivo, mouse", "description": "Transgenic mice containing a construct composed of the regulatory portion of the HIV LTR (U3 region) upstream of the coding sequence of the firefly luciferase gene were generated and evaluated for the emission of photons after transmission through tissues. A diagram of the construct is shown at the bottom of FIG. 13. Numbers along the construct indicate nucleotide positions relative to the start of transcription. Sequences matching known motifs of cellular transcription factors are indicated with the names of the factors. Transcription from the HIV LTR was activated in the right ear of each two animals with a single topical application of dimethyl sulfoxide (DMSO). The animal on the left in FIG. 13 was given 150 μl of an aqueous solution of the substrate luciferin (50 mg/ml) via intraperitoneal (i.p.) injection. The animal on the right was not given substrate. 20 min. post treatment with substrate the animals were imaged as described for the plate in FIG. 12 with a 20 min. integration time. […] This technology allows for the temporal and spatial analyses of transcriptional activity in living animals.\nThe left half of the shaved dorsal surface of the transgenic animals and the left ear were treated twice daily for two days with DMSO to activate expression of the HIV-1 LTR. Luciferin was applied topically over the entire surface of the back and both ears, and animals were imaged immediately after addition of substrate.\nThis signal is assumed to be due to ingestion of DMSO during grooming (FIG. 17)."}}, "data": [{"molecule": "O=C(O)c1cn(C2CC2)c2cc(N3CCNCC3)c(F)cc2c1=O", "note": "[ciprofloxacin]", "values": [{"measurement": "Bioluminescence over the abdomen", "setting": "SL1344lux Salmonella; Balb/c mice orally inoculated with SL1344lux, at 8 days p.i. 100 mg ciprofloxacin hydrochloride i.p. (3 mg/kg body weight), 5.5 h after initiation of treatment", "result": "reduced to undetectable levels"}, {"measurement": "Infection (photon emission) compared to time zero and to untreated control mice", "setting": "SL1344lux Salmonella; mice orally inoculated with SL1344lux, treated with 100 mg of ciprofloxacin", "result": "significantly reduced"}]}, {"molecule": "O=C(O)[C@H]1CSC(c2nc3ccc(O)cc3s2)=N1", "note": "[luciferin]", "values": [{"measurement": "Bioluminescence from spots containing 200 mM luciferin", "setting": "[1]; 5 μl spots in DMSO on DMSO-induced back skin", "result": "roughly equivalent to that from the 100 mM spots"}, {"measurement": "Bioluminescent response versus topical luciferin concentration", "setting": "[1]; 5 μl spots of luciferin in DMSO on DMSO-induced back skin, imaged 2 min. after application", "result": "increase linearly over the concentrations from 12.5 mM to 100 mM"}, {"measurement": "Bioluminescence from solutions of luciferin containing water", "setting": "[1]; mouse, in vivo", "result": "no detectable bioluminescence"}, {"measurement": "Time of peak light emission, systemic substrate", "setting": "[1]; mouse, in vivo", "result": "20 to 30", "unit": "min"}, {"measurement": "Time of peak light emission, topical substrate", "setting": "[1]; mouse, in vivo", "result": "immediately after topical treatment"}]}, {"molecule": "C[S+](C)[O-]", "note": "[DMSO, dimethyl sulfoxide]", "values": [{"measurement": "Bioluminescence from internal tissues", "setting": "HIV LTR; animals treated with DMSO on one ear only", "result": "Bioluminescence was detectable from the abdomens"}, {"measurement": "Bioluminescence after unilateral DMSO treatment", "setting": "HIV LTR; left half of shaved dorsal surface and left ear treated twice daily for two days, luciferin topical over back and both ears", "result": "Unilateral emission of bioluminescence corresponding to the induced region"}, {"measurement": "Bioluminescence from the DMSO-induced ear", "setting": "HIV LTR; single topical application of DMSO on right ear, luciferin 150 μl of 50 mg/ml i.p., imaged 20 min. post substrate", "result": "light emission over the right ear"}]}]}
